Assay results reported in ChEMBL document CHEMBL1201862, “PubChem BioAssay data set” (2004).
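Step 1: Grow cells in 96-well plates. Step 2: Expose to compound for 48 hours at 5 concentrations. Step 3: Interpolate endpoints linearly; if unreached, use highest concentration. GI50 = concentration required for 50% inhibition of growth.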 Active and inactive are the calls of the source. No stated cut-off is given here; in the data, active = GI50 up to about 1.1 µM and inactive = higher.

Key:
Test in all cases: NCI tumour cell line growth inhibition, 48 h
UACC-257 = tested on: UACC-257
NCI-H460 = tested on: NCI-H460
SF-539 = tested on: SF-539
LXFL 529 = tested on: LXFL 529
HCT-15 = tested on: HCT-15
SN12C = tested on: SN12C
SK-MEL-28 = tested on: SK-MEL-28
OVCAR-4 = tested on: OVCAR-4
SF-268 = tested on: SF-268
DMS-273 = tested on: DMS-273
HOP-18 = tested on: HOP-18
NCI-H226 = tested on: NCI-H226
CCRF-CEM = tested on: CCRF-CEM
MOLT-4 = tested on: MOLT-4
SF-295 = tested on: SF-295
K562 = tested on: K562
HT-29 = tested on: HT-29
LOX IMVI = tested on: LOX IMVI
NCI-H23 = tested on: NCI-H23
DMS-114 = tested on: DMS-114
A549 = tested on: A549
OVCAR-3 = tested on: OVCAR-3
ACHN = tested on: ACHN
SK-MEL-2 = tested on: SK-MEL-2
SK-OV-3 = tested on: SK-OV-3
Malme-3M = tested on: Malme-3M
786-0 = tested on: 786-0
OVCAR-8 = tested on: OVCAR-8
TK-10 = tested on: TK-10
UACC-62 = tested on: UACC-62
M19-MEL = tested on: M19-MEL
NCI-H522 = tested on: NCI-H522
U-251 = tested on: U-251
HCT-116 = tested on: HCT-116
SNB-78 = tested on: SNB-78
DLD-1 = tested on: DLD-1
M14 = tested on: M14
HL-60 = tested on: HL-60
SNB-75 = tested on: SNB-75
XF498 = tested on: XF498
SK-MEL-5 = tested on: SK-MEL-5
UO-31 = tested on: UO-31
KM12 = tested on: KM12
SW-620 = tested on: SW-620
IGROV-1 = tested on: IGROV-1
OVCAR-5 = tested on: OVCAR-5
HOP-92 = tested on: HOP-92
SNB-19 = tested on: SNB-19
EKVX = tested on: EKVX
A498 = tested on: A498
RPMI-8226 = tested on: RPMI-8226
RXF 393 = tested on: RXF 393
KM-20L2 = tested on: KM-20L2
COLO 205 = tested on: COLO 205
CAKI-1 = tested on: CAKI-1
HCC 2998 = tested on: HCC 2998
HOP-62 = tested on: HOP-62
SR = tested on: SR

Measured: GI50

CC(Oc1ccc(OCC2CCCCC2)cc1)C(N)=O (stereo not given)
inactive: UACC-257 72.3 µM | NCI-H460 > 100 µM | SF-539 > 100 µM | LXFL 529 > 100 µM | SN12C > 100 µM | SK-MEL-28 > 100 µM | OVCAR-4 > 100 µM | SF-268 > 100 µM | DMS-273 > 100 µM | HOP-18 > 100 µM | NCI-H226 > 100 µM | CCRF-CEM > 100 µM | MOLT-4 > 100 µM | SF-295 > 100 µM | K562 > 100 µM | HT-29 > 100 µM | LOX IMVI > 100 µM | NCI-H23 > 100 µM | DMS-114 73.6 µM | A549 > 100 µM | OVCAR-3 > 100 µM | ACHN > 100 µM | SK-MEL-2 > 100 µM | SK-OV-3 > 100 µM | Malme-3M > 100 µM | 786-0 > 100 µM | OVCAR-8 > 100 µM | TK-10 > 100 µM | UACC-62 > 100 µM | M19-MEL > 100 µM | NCI-H522 87.9 µM | U-251 > 100 µM | HCT-116 > 100 µM | SNB-78 > 100 µM | DLD-1 > 100 µM | M14 > 100 µM | HL-60 > 100 µM | SNB-75 > 100 µM | XF498 > 100 µM | SK-MEL-5 > 100 µM | UO-31 > 100 µM | KM12 > 100 µM | SW-620 > 100 µM
> 100 µM: HCT-15

C[Si](C)(C)/C(Br)=C\CCN1C(=O)CCC1O (stereo not given)
inactive: UACC-257 > 100 µM | IGROV-1 > 100 µM | NCI-H460 > 100 µM | SF-539 > 100 µM | OVCAR-5 > 100 µM | HOP-92 91.4 µM | SNB-19 > 100 µM | LXFL 529 > 100 µM | SN12C > 100 µM | SK-MEL-28 > 100 µM | OVCAR-4 > 100 µM | SF-268 > 100 µM | DMS-273 > 100 µM | HOP-18 > 100 µM | NCI-H226 > 100 µM | CCRF-CEM > 100 µM | MOLT-4 > 100 µM | EKVX > 100 µM | SF-295 > 100 µM | K562 > 100 µM | HT-29 > 100 µM | LOX IMVI > 100 µM | NCI-H23 > 100 µM | DMS-114 > 100 µM | A549 > 100 µM | OVCAR-3 > 100 µM | A498 > 100 µM | ACHN > 100 µM | SK-MEL-2 > 100 µM | SK-OV-3 > 100 µM | Malme-3M > 100 µM | 786-0 > 100 µM | OVCAR-8 > 100 µM | RPMI-8226 > 100 µM | TK-10 > 100 µM | RXF 393 > 100 µM | UACC-62 > 100 µM | M19-MEL > 100 µM | NCI-H522 71.9 µM | U-251 > 100 µM | HCT-116 > 100 µM | SNB-78 > 100 µM | M14 > 100 µM | SNB-75 34.2 µM | XF498 > 100 µM | KM-20L2 > 100 µM | COLO 205 > 100 µM | UO-31 > 100 µM | KM12 > 100 µM | SW-620 > 100 µM
> 100 µM: HCT-15

Cc1ccc(S(=O)(=O)NCC2CCCCC2=O)cc1 (stereo not given)
> 100 µM: HCT-15
inactive: UACC-257 16.4 µM | IGROV-1 > 100 µM | NCI-H460 > 100 µM | SF-539 > 100 µM | OVCAR-5 > 100 µM | HOP-92 24.2 µM | SNB-19 > 100 µM | LXFL 529 > 100 µM | SN12C > 100 µM | SK-MEL-28 > 100 µM | OVCAR-4 69.3 µM | SF-268 70 µM | DMS-273 > 100 µM | HOP-18 > 100 µM | NCI-H226 > 100 µM | CCRF-CEM > 100 µM | MOLT-4 49.7 µM | EKVX > 100 µM | SF-295 > 100 µM | K562 66.1 µM | HT-29 10.2 µM | LOX IMVI > 100 µM | NCI-H23 > 100 µM | DMS-114 51.9 µM | A549 > 100 µM | OVCAR-3 > 100 µM | A498 > 100 µM | SK-MEL-2 > 100 µM | CAKI-1 15 µM | SK-OV-3 > 100 µM | Malme-3M > 100 µM | 786-0 > 100 µM | OVCAR-8 > 100 µM | RPMI-8226 40.8 µM | TK-10 > 100 µM | RXF 393 > 100 µM | UACC-62 66.5 µM | M19-MEL > 100 µM | NCI-H522 56.8 µM | U-251 > 100 µM | HCT-116 > 100 µM | SNB-78 > 100 µM | M14 > 100 µM | HL-60 45.3 µM | SNB-75 22.9 µM | XF498 > 100 µM | SK-MEL-5 82.4 µM | KM-20L2 > 100 µM | COLO 205 > 100 µM | UO-31 57.3 µM | KM12 > 100 µM | SW-620 > 100 µM

O=C(CC(=O)c1ccccc1)c1ccccc1.O=C(CC(=O)c1ccccc1)c1ccccc1.O=C(CC(=O)c1ccccc1)c1ccccc1.[SiH4]
inactive: UACC-257 9.42 µM | IGROV-1 5.4 µM | SF-539 8.67 µM | OVCAR-5 12.4 µM | HOP-92 4.57 µM | SNB-19 4.74 µM | LXFL 529 3.39 µM | SN12C 3.95 µM | SK-MEL-28 7.76 µM | OVCAR-4 4.63 µM | SF-268 3.37 µM | HOP-18 6.71 µM | NCI-H226 8.87 µM | CCRF-CEM 1.14 µM | MOLT-4 2.59 µM | EKVX 6.65 µM | SF-295 4.65 µM | K562 3.88 µM | HT-29 4.41 µM | LOX IMVI 3.1 µM | NCI-H23 3.15 µM | DMS-114 2.3 µM | A549 3.01 µM | OVCAR-3 2.42 µM | A498 10.6 µM | ACHN 3.63 µM | CAKI-1 4.92 µM | SK-OV-3 5.79 µM | Malme-3M 11.8 µM | 786-0 7.74 µM | OVCAR-8 3.47 µM | RPMI-8226 4.03 µM | TK-10 5.97 µM | UACC-62 3.89 µM | M19-MEL 3.31 µM | NCI-H522 2.26 µM | U-251 2.86 µM | HCT-116 5.02 µM | DLD-1 3.7 µM | HCC 2998 3.6 µM | M14 6.24 µM | HL-60 1.92 µM | SNB-75 10.4 µM | XF498 3.87 µM | HOP-62 7.59 µM | SK-MEL-5 4.66 µM | SR 3.57 µM | KM-20L2 4.18 µM | COLO 205 2.21 µM | UO-31 4.56 µM | KM12 3.48 µM | SW-620 4.15 µM
